Read-outs that look alike come from different tables or passages of the source.
Assays:
[1] = tested on: Cas9 with gRNA targeting CCR5 in HEK293 cells; experiment: High Throughput Genome-wide Translocation Sequencing (HTGTS) off-target analysis; format: cell-based, human
Source text: However the impact of DNA repair pathway choice manipulation on genomic integrity is largely unaddressed. To address the impact of ectopic expression of RAD52 and dn53BP1 genomic integrity and CRISPR/Cas9-associated off-target effects the state of the art “High Throughput Genome-wide Translocation Sequencing” (HTGTS)^20—an unbiased approach to monitor off-target (OT) cutting—was utilized. […] As CRISPR/Cas9 may have unintended cutting activity at totally unrelated sequences that can not be predicted by an algorithm, the off-target activity of each guide by HTGTS was examined (data not shown). Though majority of the OTs identified by HGTS overlapped with those identified previously, it was possible to detect novel OTs (data not shown). To study the impact of RAD52 and dn53BP1 on OTs and genomic integrity one guide with no OTs (CCR5D) and other guide that has 7 OTs identified by HTGTS (CCR5Q) were further examined.
HTGTS and Off-Target Analysis. Off-target analysis was carried out by HTGTS as described earlier^20. Briefly, HEK293 cells were co-transfected with expression plasmids encoding Cas9:RAG1B (20 μg), guide RNA targeting CCR5 (10 μg), RAD52 and dn53BP1 (5 μg each) and GFA (5 μg) using Calcium Phosphate. Cells were lysed 48 hours post-transfection and DNA was isolated by ethanol precipitation. 50 μg of DNA was processed for HTGTS as described^20.
However, the impact that such manipulations may have on genomic integrity has not been addressed. To address the impact of ectopic expression of RAD52 and dn53BP1 on genomic integrity and CRISPR/Cas9 specificity High Throughput Genome-wide Translocation Sequencing (HTGTS) was utilized (Frock et al., 2014)—an unbiased approach to monitor the specificity and off-target (OT) activity of Cas9 and other engineered nucleases as well as other types of DSBs.
HTGTS was conducted to analyse off-target effects for gRNA targeting CCR5 (FIG. 8A).

[2] = tested on: primary human CD34+ hematopoietic stem and progenitor cells; details: Mandal et al. 2014; cited from earlier work

Substance	number of off-target sites (OTs) identified by HTGTS [1]	off-target activity in CD34+ HSPC [2]	number of off-target sites (OTs) identified by HTGTS ([1]; listed as CCR5D)
gCCR5Q: guide RNA targeting CCR5, spacer GCTGTGTTTGCGTCTCTCCC (guide GCTGTGTTTGCGTCTCTCCCAGG; listed as DNA, chemistry not given here; the letters are possibly those of the target site; listed as Homo sapiens)	7	did not exhibit OT activity	
gCCR5D: guide RNA targeting CCR5, spacer TCACTATGCTGCCGCCCAGT (guide TCACTATGCTGCCGCCCAGTGGG; listed as DNA, chemistry not given here; the letters are possibly those of the target site; listed as Homo sapiens)	no OT	did not exhibit OT activity	no OTs

— patent publication US20200149038A1, “METHODS AND COMPOSITIONS RELATING TO HOMOLOGY-DIRECTED REPAIR” (CHILDREN'S MEDICAL CENTER CORPORATION, priority 2016, published 2020)
